Experimental data: patent US10738093B2, “Discovery of cationic nonribosomal peptides as Gram-negative antibiotics through global genome mining” (The Hong Kong University of Science and Technology, priority 2018, dated 2020)
Values after ≈ are worked out from the molar mass of the structure shown. Positions of bridges follow the written chain, without caps; N, C: chain ends. Non-standard residues stand in square brackets, D forms with d. Residues, ends and D or L forms follow the SMILES beside them. *: point of attachment. Octanoyl(7-Me) = CC(C)CCCCCC(=O)*; aThr = C[C@H](O)[C@H](N)C(=O)O; dOrn = NCCC[C@@H](N)C(=O)O; Orn = NCCC[C@H](N)C(=O)O

Tests used:
[1] = tested on: Saccharomyces cerevisiae VL-48; experiment: MIC, Saccharomyces cerevisiae; assay type: cell-based
Procedure: (§1) Minimum inhibitory concentration (MIC) was determined by broth microdilution according to CLSI guidelines. The test medium for most species was Mueller-Hinton broth (MHB). Bacteria were grown overnight to early stationary phase and adjusted in MHB to 5.0×10^5 colony-forming units per mL (c.f.u./mL) in the wells of 96-well microtiter plates, mixed with varying concentrations of test compounds and incubated at 37° C. for 24 h. […] MHBs containing 10% fetal bovine serum (Gibco), 21 mM MgCl, or 1.0 mg/ml LPS (lipopolysaccharides from Escherichia coli O55:B5, Sigma-Aldrich) were used to test their inhibitory effects.

[2] = tested on: Colistin-resistant E. coli (E. coli ATCC 25922 carrying mcr-1); assay type: cell-based, Escherichia coli
Procedure: as §1

E. coli Top10 [3] = assay type: cell-based, Escherichia coli; conditions: Top10
Procedure: as §1

E. coli Top10 [4] = experiment: Time-kill assay; assay type: cell-based, Escherichia coli
Procedure: An overnight culture of E. coli Top10 or Pseudomonas aeruginosa PAO1 cells was diluted 1:10,000 in MHB and incubated at 37° C. with agitation at 180 rpm for 2 h (early exponential). The bacteria were then challenged with antibiotics at 10×MIC, brevicidine (20 μg/ml), laterocidine (20 μg/ml) or polymyxin B (10 μg/ml) at room temperature without shaking. An untreated sample of cells was used as a negative control. At intervals, 10 μL aliquots were removed, centrifuged at 10,000 g for 1 min and resuspended in 1.0 mL of sterile PBS. Tenfold-serially-diluted suspensions were plated on MHB agar plates and incubated at 37° C. overnight. Colonies were counted and the number of c.fu. per mL was calculated. For analysis of lysis, 300 μL of culture (OD600=1.0) were treated with 10×MIC of antibiotics for 24 h. Experiments were performed in triplicate.

P. aeruginosa PAO1 = experiment: Atomic force microscopy of treated P. aeruginosa; assay type: cell-based, Pseudomonas aeruginosa
Procedure: (§2) The samples were then centrifuged at 8000 g for 10 min at 4° C., and the pellet was washed twice in 100 lpL of apyrogenic water. The bacteria resuspended in 50 μL of apyrogenic water were applied to mica disks and dried overnight at 28° C. before imaging. Atomic force micrographs were recorded on a Veeco Mulitmode AFM with NanoScope III controller operating in contact mode. The data were analyzed with NanoScope Analysis software v.1.40 (Veeco, USA). Scans were acquired at 25° C. at the rates of 1.0 Hz and 256 samples per line resolution. Downstream image processing and analysis were performed using NanoScope software (Bruker). Height images were flattened to compensate for cell curvature, and topographical sections were used to generate two-dimensional reconstructions of surface texture.

E. coli Top10 [5] = experiment: Bacterial growth kinetics; assay type: cell-based, Escherichia coli; conditions: E. coli cells exposed to compound
Procedure: A fresh single colony of E. coli Top10 was inoculated into MHB (5 mL) and grown with shaking at 225 rpm overnight. The bacteria were diluted to 1×10^5 c.f.u./mL in fresh MHB, grown […] to early log-phase (OD=0.15) and treated with the antibiotics of interest in the wells of a 96-well plate. Final antibiotic concentrations varied from 1×MIC to 8×MIC. The plate was then incubated at 30° C. overnight, with OD 600 measurements taken every 30 seconds.

E. coli ATCC 25922 [6] = experiment: Atomic force microscopy of treated E. coli; assay type: cell-based, Escherichia coli; conditions: E. coli ATCC25922, 10×MIC
Procedure: as §2

[7] = tested on: Escherichia coli ATCC 25922; experiment: Resistance acquisition during serial passaging; assay type: cell-based; conditions: serial passaging at subinhibitory concentrations over 30 days
Procedure: Escherichia coli ATCC 25922 was inoculated into MHB overnight at 37° C. with continuous shaking. Cells were diluted 10,000 times in MHB to about 1×10^6 c.f.u./mL. […] Plates with bacteria were incubated at 37° C. without shaking. […] This process was repeated for 30 d, and the final MIC was confirmed by the same antibacterial assay described above. The experiment was performed in quadruplicate, and on each day, the sample that developed the highest resistance was measured to plot the curve.

E. cloacae NRRL-B-425 = assay type: cell-based, Enterobacter cloacae; conditions: NRRL-B-425
Procedure: as §1

[8] = tested on: Methicillin-resistant Staphylococcus aureus ATCC 43300; assay type: cell-based
Procedure: as §1

Acinetobacter baumannii = assay type: cell-based
Procedure: as §1

Candida albicans = assay type: cell-based
Procedure: as §1

[9] = tested on: Klebsiella pneumoniae NRRL-B-408; assay type: cell-based; conditions: NRRL-B-408
Procedure: as §1

[10] = tested on: Enterobacter cloacae NRRL-B-413; assay type: cell-based; conditions: NRRL-B-413
Procedure: as §1

Bacillus subtilis 168 = assay type: cell-based; conditions: 168
Procedure: as §1

[11] = tested on: Pseudomonas aeruginosa PAO1; assay type: cell-based; conditions: PAO1
Procedure: as §1

E. coli ATCC 25922 [12] = experiment: Neutropenic mouse thigh infection model; assay type: in vivo, Escherichia coli; conditions: brevicidine 30 mg/kg or laterocidine 15 mg/kg, 2 times, after 26 h
Procedure: In vivo activities of brevicidine and laterocidine were tested using the mouse thigh infection model. Animal studies were performed by Pharmacology Discovery Services Taiwan Ltd. (Taipei, Taiwan) in general accordance with standard guidelines on animal welfare in an AAALAC-accredited facility. The protocol was reviewed and approved by the Institutional Animal Care and Use Committee. Groups of five female specific-pathogen-free ICR (CD-1) mice weighing 22±2 g (˜5 weeks of age) were used. Animals were immunosuppressed with two intraperitoneal injections of cyclophosphamide, the first at 150 mg/kg 4 d before infection (day −4) and the second at 100 mg/kg 1 d before infection (day −1). On day 0, animals were inoculated intramuscularly (0.1 ml/thigh) in the right thigh with an E. coli ATCC 25922 suspension. Vehicle (10% DMSO, 1% Tween 80, 0.9% NaCl) and antibiotics were then subcutaneously injected 2 h and 8 h later. Due to limited amount of compounds 1-2, only one concentration of 1(30 mg/kg) or 2 (15 mg/kg) was used in this study. At 26 h after inoculation, animals were euthanized by CO2 asphyxiation before the muscle of the right thigh was harvested from each test animal. The removed muscle was homogenized in 5 mL of PBS, pH 7.4, with a polytron homogenizer. Homogenates in the amount of 0.1 mL were used for serial tenfold dilutions and plated onto a nutrient agar medium for colony count (c.f.u./g) determination.

[13] = tested on: K. pneumoniae NRRL-B-3521; assay type: cell-based, Klebsiella pneumoniae; conditions: NRRL-B-3521
Procedure: as §1

[14] = tested on: Escherichia coli ATCC 25922; experiment: microbe, parasite or virus in culture; assay type: cell-based; conditions: ATCC 25922
Procedure: as §1

SMILES: CC[C@H](C)[C@@H]1NC(=O)[C@@H](NC(=O)[C@H](Cc2c[nH]c3ccccc23)NC(=O)[C@@H](CCCN)NC(=O)CNC(=O)[C@H](CCCN)NC(=O)[C@@H](CCCN)NC(=O)[C@@H](Cc2c[nH]c3ccccc23)NC(=O)[C@@H](Cc2ccc(O)cc2)NC(=O)[C@@H](CO)NC(=O)CCCCCC(C)C)[C@H](C)OC(=O)CNC(=O)CNC(=O)[C@H](CC(N)=O)NC1=O [Compound 2, 7-Methyl-Octanoyl-D-Ser-D-Tyr-D-Trp-D-Orn-Orn-Gly-D-Orn-Trp-Thr-Ile-Asn-Gly-Gly (cyclized via lactone formation between Thr and the C-terminus)] ({Octanoyl(7-Me)}-[dS][dY][dW][dOrn][Orn]G[dOrn]W[aThr]INGG; ester 9-C)
- MIC ([1]; Saccharomyces cerevisiae): >64 µg/mL
- MIC Sc ([1]; Table 2, Saccharomyces cerevisiae VL-48): ND (ND >64 μg/ml)
- MIC [2]: 2 µg/mL (≈ 1.25 µM)
- MIC (E. coli Top10 [3]): 2 µg/mL (≈ 1.25 µM)
- time of exposure to significant reduction of viable cells (E. coli Top10 [4]; 10 times the MIC): 30 min
- time of exposure to slightly reduced cell viability (E. coli Top10 [4]; 10 times the MIC): 15 min
- bactericidal against E. coli (E. coli Top10 [4]; growth kinetics, time-kill assay and lysis assay): bactericidal
- cell morphology by AFM (P. aeruginosa PAO1): lost their regular rod-like shape and became lumpy and rugged
- time of growth at a reduced rate before steady decrease in cell count (E. coli Top10 [5]): 30 min
- cell morphology by AFM (E. coli ATCC 25922 [6]): lost their regular rod-like shape and became lumpy and rugged
- development of resistance [7]: development of resistance was not observed
- MIC (E. cloacae NRRL-B-425): 3 µg/mL (≈ 1.87 µM)
- MIC ([8]; ATCC 43300): >64 µg/mL
- MIC MRSA ([8]; Table 2, Methicillin-resistant Staphylococcus aureus ATCC 43300): ND (ND >64 μg/ml)
- MIC (Acinetobacter baumannii): 4 µg/mL (≈ 2.49 µM)
- MIC Ab (Acinetobacter baumannii): 4 µg/mL (≈ 2.49 µM)
- MIC (Candida albicans): >64 µg/mL
- MIC Ca (Candida albicans; Table 2, Candida albicans): ND (ND >64 μg/ml)
- MIC [9]: 4 µg/mL (≈ 2.49 µM)
- MIC [10]: 2 µg/mL (≈ 1.25 µM)
- MIC En [10]: 2 µg/mL (≈ 1.25 µM)
- MIC (Bacillus subtilis 168): 32 µg/mL (≈ 19.9 µM)
- MIC Bs (Bacillus subtilis 168): 32 µg/mL (≈ 19.9 µM)
- MIC [11]: 2 µg/mL (≈ 1.25 µM)
- MIC Pa [11]: 2 µg/mL (≈ 1.25 µM)
- bactericidal efficacy in mouse thigh infection (viable bacteria) (E. coli ATCC 25922 [12]): reduced numbers of viable bacteria
- MIC [13]: 4 µg/mL (≈ 2.49 µM)
- MIC [14]: 2 µg/mL (≈ 1.25 µM)
- MIC Ec [14]: 2 µg/mL (≈ 1.25 µM)
